Reference: patent US6265177A, “Enzyme assay for mutant firefly luciferase” (priority 1997, dated 2001)

What was measured:
Assay type in all cases: biochemical
Conditions in all cases: 21° C., 20 mM Tricine pH 7.8, 470 μM D-luciferin, ATP 6.25-800 μM, crude cell extract
[1] = molecular target: T1, Photinus pyralis luciferase, recombinant wild type (r Wild Type), luc gene SEQ ID NO: 1 (Photinus pyralis, UniProt P08659); assay: Luciferase assay of Km for MgATP, recombinant wild type
T1 construct: made in house; host or cells: E. coli JM109, crude lysed cell extract, plasmid pPW601a
T1 sequence (P08659 whole entry): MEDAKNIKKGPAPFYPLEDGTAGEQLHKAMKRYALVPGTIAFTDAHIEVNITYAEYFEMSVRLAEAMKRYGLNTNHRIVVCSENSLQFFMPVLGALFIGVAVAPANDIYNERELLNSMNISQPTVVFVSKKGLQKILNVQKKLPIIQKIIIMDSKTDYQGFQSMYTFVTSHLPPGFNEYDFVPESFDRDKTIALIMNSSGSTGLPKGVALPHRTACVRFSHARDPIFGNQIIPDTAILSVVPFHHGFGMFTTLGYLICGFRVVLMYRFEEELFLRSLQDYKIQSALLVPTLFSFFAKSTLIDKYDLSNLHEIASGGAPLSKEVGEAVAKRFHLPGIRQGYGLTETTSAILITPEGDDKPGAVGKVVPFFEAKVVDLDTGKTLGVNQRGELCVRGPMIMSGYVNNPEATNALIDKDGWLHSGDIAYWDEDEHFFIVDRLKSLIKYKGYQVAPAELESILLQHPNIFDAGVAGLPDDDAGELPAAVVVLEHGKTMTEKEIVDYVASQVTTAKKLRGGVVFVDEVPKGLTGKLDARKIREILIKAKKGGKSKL
Experimental: (§1) CELL CULTURE AND EXTRACTION: E. coli JM109 transformants were grown to an OD600 =1.0. Aliquots of cells expressing mutant luciferases from plasmid pPW601a, were subjected to lysis as described in the Promega technical bulletin and the lysed extracts were then stored on ice prior to assay.
(§2) ASSAY OF Km OF MUTANT LUCIFERASES: luciferase assays were performed at 21° C. using 100 μl of assay buffer (20 mM Tricine pH 7.8 containing 2.0 mM MgSO4, 0.1 mM EDTA, 33 mM dithiotheitol, 470 μM D-luciferin and ATP in the concentration range 6.25-800 μM). Each assay contained 5-10 μl of crude cell extract.
(§3) Such plots kan be used to determine the Km.

[2] = molecular target: T2, Photinus pyralis luciferase mutant H245A (His245Ala) (Photinus pyralis, UniProt P08659, H245A); assay: Luciferase assay of Km for MgATP, mutant H245A
T2 construct: made in house; host or cells: E. coli JM109, crude lysed cell extract, plasmid pPW601a
T2 sequence (P08659 whole entry H245A): as the sequence (P08659 whole entry) above, with H245A counted along it
Experimental: (§4) SITE DIRECTED MUTAGENESIS: Three mutagenic oligonucleotides were used to create the mutations H245A, N and Q (Ala, Asn, or Gln--see Seq ID Nos. 2, 3 & 4). The equivalent wild-type sequence is shown at Seq ID No. 5. […] The mutagenesis was carried out in accordance with the kit instructions of kit supplied by Clontech laboratories Inc, Palo Alto, Calif. USA.
as §1, §2, §3

[3] = molecular target: T3, Photinus pyralis luciferase mutant H245N (His245Asn) (Photinus pyralis, UniProt P08659, H245N); assay: Luciferase assay of Km for MgATP, mutant H245N
T3 construct: made in house; host or cells: E. coli JM109, crude lysed cell extract, plasmid pPW601a
T3 sequence (P08659 whole entry H245N): as the sequence (P08659 whole entry) above, with H245N counted along it
Experimental: as §4, §1, §2, §3

[4] = molecular target: T4, Photinus pyralis luciferase mutant H245Q (His245Gln), SEQ ID NO: 6 (Photinus pyralis, UniProt P08659, H245Q); assay: Luciferase assay of Km for MgATP, mutant H245Q
T4 construct: ID No. 6; made in house; host or cells: E. coli JM109, crude lysed cell extract, plasmid pPW601a
T4 sequence (P08659 whole entry H245Q): as the sequence (P08659 whole entry) above, with H245Q counted along it
Experimental: as §4
The amino acid sequence of H245Q is shown in Seq. ID No. 6.
as §1, §2, §3

[5] = molecular target: Photinus pyralis luciferase thermostable mutant A215L (printed A21SL) (Photinus pyralis, UniProt P08659, A215L); assay: Luciferase assay of Km for MgATP, thermostable mutant A215L
Sequence of Photinus pyralis luciferase thermostable mutant A215L (printed A21SL) (P08659 whole entry A215L): as the sequence (P08659 whole entry) above, with A215L counted along it
Experimental: as §1, §2, §3
*A215L is a thermostable mutant in which amino acid 215 is substituted with
lysine (see WO 96/22376 - SECRETARY OF STATE FOR DEFENCE).

Q: What does the source list for `Nc1ncnc2c1ncn2[C@@H]1O[C@H](COP(=O)(O)OP(=O)(O)OP(=O)(O)O)[C@@H](O)[C@H]1O` [MgATP]?
A: Km [1]: 66 µM; Km [2]: 442 µM; Km [3]: 623 µM; Km [4]: 1340 µM; Km [5]: 65 µM
